Measurements taken from patent US20120083522A1, “MODULATION OF INFLAMMATORY RESPONSES BY FACTOR XI” (Isis Pharmaceuitcals, inc., priority 2009, published 2012).
Entries after “also recorded” stand apart in the source; their conditions may differ. In the oligonucleotide strings, read from the 5' end, every base follows the letter of its sugar. An asterisk marks phosphorothioate; unmarked linkages are phosphodiester. Other units and linkages are bracketed, terminal groups are in braces. A string of capitals states the bases alone. e = 2'-O-(2-methoxyethyl) (MOE); [5mC] = 5-methylcytosine; d = 2'-deoxy (DNA)

How the values were obtained:
[1] = tested on: collagen-induced arthritis (CIA) model; assay: Arthritis Study A: collagen-induced arthritis (Example 11); type: in vivo, DBA/1J mice; conditions: for incidence of CIA (in words): 20 mg/kg
Method: The effect of inhibition of Factor XI and its role in fibrin accumulation in the joints leading to joint inflammation and rheumatoid arthritis was evaluated in a murine collagen-induced arthritis (CIA) model. […] Arthritis induced in mice administered collagen can be visually assessed and clinically scored as described by Marty et al. (J Clin Invest, 107:631-640, 2001) where 1 point is given for each swollen digit except the thumb (maximum, 4), 1 point is given for the tarsal or carpal joint, and 1 point is given for the metatarsal or metacarpal joint with a maximum score of […]. Each paw was graded individually, the cumulative clinical arthritic score per mouse reaching a maximum of 22 points
In a group of 15 DBA/1J mice, 20 mg/kg of ISIS 404071 was injected subcutaneously twice a week for 12 weeks. One control group of 15 mice was injected with 20 mg/kg of ISIS 403102 twice a week for 12 weeks. Two control groups of 15 mice each were injected with PBS twice a week for 12 weeks. Two weeks after the first oligonucleotide dose, type II bovine collagen (Chondrex Inc, Redmond, Wash.) was mixed with complete Freund's adjuvant, homogenized on ice and the emulsion, containing 100 μg of collagen, was injected subcutaneously at the base of the tail in the Factor XI group, the Factor VII group and one of the PBS control groups. A booster injection containing 100 μg collagen type II in incomplete Freund's adjuvant was injected subcutaneously at the base of the tail at a different injection site on day 21 after the first collagen injection in these groups.
Starting 35 days from the first collagen injection, mice in all groups were examined daily for the visual appearance of arthritis, such as swelling and stiffness, in peripheral joints. The results are presented in Table 20 (expressed as a percentage of the PBS control) and in FIGS. 1-3.
‘Incidence of CIA’ refers to the percentage of mice in each group that had CIA at day 40. The ‘percentage of paws affected’ refers to the percentage of paws out of a total of 60 paws in each group of mice that were affected with arthritis. ‘Average number of affected paws’ refers to the number of affected paws in mice that were diagnosed to have arthritis. The ‘clinical severity of CIA’ was scored as described by Marty et al. (J Clin Invest, 107:631-640, 2001) and as follows: 1 point for each swollen digit except the thumb (maximum, 4), 1 point for the tarsal or carpal joint, and 1 point for the metatarsal or metacarpal joint with a maximum score of 6 for a hindpaw and 5 for a forepaw. Each paw was graded individually, the cumulative clinical arthritic score per mouse reaching a maximum of 22 points.

[2] = Colitis Study F: plasma ALT, AST, BUN, CREAT, CHOL, TBIL; type: in vivo, Swiss Webb mice; conditions: DSS-treated mice, 50 mg/kg s.c. twice a week for 3 weeks
Method: (§1) In a first group of 8 Swiss Webb mice, 50 mg/kg of ISIS 404071 was injected subcutaneously twice a week for 3 weeks. Two control groups of 8 mice each were injected with PBS twice a week for 3 weeks. After the oligonucleotide treatment, 4% DSS in water was administered ad libitum for 7 days to the experimental group and one PBS control group. Mice were sacrificed at the end of the study on day 7 after DSS was administered.
Plasma levels of aminotransferases (ALT and AST), blood urea nitrogen (BUN), creatinine (CREAT), cholesterol (CHOL) and total bilirubin (TBIL) were measured after treatment and are shown in Table 47.

Factor XI mRNA = assay: Colitis Study F: Factor XI mRNA in liver and colon; type: in vivo, Swiss Webb mice; conditions: DSS-treated mice, 50 mg/kg, percent of the PBS treated control
Method: as §1
The effect of antisense inhibition in the liver and colon levels of Factor XI mRNA after treatment by ISIS 404071 is presented in Table 48 (as a percent of the PBS treated control).

bradykinin = assay: Colitis Study D: bradykinin levels in colon; type: in vivo, Swiss Webb mice; conditions: for Bradykinin levels in colon: DSS-treated mice
Method: (§2) In a first group of 8 Swiss Webb mice, 10 mg/kg of ISIS 404071 was injected subcutaneously twice a week for 3 weeks. In a second group of 8 Swiss Webb mice, 20 mg/kg of ISIS 404057 was subcutaneously injected twice a week for 3 weeks. In a third control group of 8 Swiss Webb mice, 40 mg/kg of ISISI 404057 was injected subcutaneously twice a week for 3 weeks. Two control groups of 8 mice each were injected with PBS twice a week for 3 weeks. After the oligonucleotide treatment, 4% DSS in water was administered ad libitum for 7 days to all the experimental groups and one PBS control group.
The effect of antisense inhibition of Factor XI on kinin levels in the colon was evaluated (Phoenix Pharmaceuticals, Burlingame, Calif.) and the results are presented in Table 32.

[3] = tested on: thrombin-antithrombin (TAT) complexes; assay: Colitis Study D: TAT levels in colon; type: in vivo, Swiss Webb mice; conditions: for TAT levels in colon: DSS-treated mice
Method: as §2
Mice with dextran sodium sulfate (DSS)-induced colitis have elevated level of thrombin-antithrombin (TAT) complexes in blood (Anthoni, C. et al., J. Exp. Med. 204: 1595-1601, 2007) that is also observed in patients with ulcerative colitis (Kume, K. et al., Intern Med. 2007. 46: 1323-9). The effect of antisense inhibition of Factor XI on TAT levels in the colon was evaluated (Thrombi-Anti-Thrombin III complex, Siemens Healthcare Diagnostics, Deerfield, Ill.) and the results are presented in Table 30.

## TGGTAATCCACTTTCAGAGG (eT*eG*eG*eT*eA*dA*dT*d[5mC]*d[5mC]*dA*d[5mC]*dT*dT*dT*d[5mC]*eA*eG*eA*eG*eG) [ISIS 404071, 5-10-5 MOE gapmer targeting murine Factor XI, target start site 869]
[1]; Arthritis Study A
  incidence of CIA (in words): significantly inhibit the incidence of CIA
[1]; Arthritis Study A, listed as Factor XI ASO
  incidence of CIA (in words): lower incidence of CIA
[1]; Arthritis Study A, FIG. 1B and 2A, listed as Factor XI ASO
  affected paws (in words): lower incidence of affected paws; also recorded: fewer affected paws on average
[1]; Arthritis Study A, FIG. 2B
  arthritis severity (in words): less severe arthritis than the control mice
[1]; Arthritis Study A, FIG. 3
  timeline of CIA incidence (in words): developed CIA at a later stage with fewer affected mice
[1]; DBA/1J mice, 20 mg/kg s.c. twice a week for 12 weeks, in mice diagnosed with arthritis
  Average no. of paws affected: 1
[1]; DBA/1J mice, 20 mg/kg s.c. twice a week for 12 weeks, out of 60 paws per group
  % of paws affected: 3%
[1]; DBA/1J mice, 20 mg/kg s.c. twice a week for 12 weeks, percentage of mice in group with CIA at day 40
  % of CIA: 13%
[1]; DBA/1J mice, 20 mg/kg s.c. twice a week for 12 weeks, score of Marty et al., maximum 22 points
  Clinical severity of CIA: 1
[2]
  Plasma ALT: 133.6 U/L
  Plasma AST: 339.3 U/L
  Plasma BUN: 29.5 mg/dL
  Plasma CHOL: 170.3 mg/dL
  Plasma TBIL: 0.7 mg/dL
Factor XI mRNA
  Factor XI mRNA levels in the Colon: 148 % of normal
  Factor XI mRNA levels in the Liver: 24 % of normal
bradykinin; Colitis Study D
  bradykinin levels (in words): decreased
bradykinin; 10 mpk
  Bradykinin levels in colon: 0.03 ng/mg protein
bradykinin; 20 mpk
  Bradykinin levels in colon: 0.00 ng/mg protein
bradykinin; 40 mpk
  Bradykinin levels in colon: 0.02 ng/mg protein
[3]; Colitis Study D
  TAT levels in the colon (in words): decreased in a dose-dependent manner
[3]; 10 mpk
  TAT levels in colon: 1.79 ng/mg protein
[3]; 20 mpk
  TAT levels in colon: 0.65 ng/mg protein
[3]; 40 mpk
  TAT levels in colon: 0.75 ng/mg protein
